Common to all, as to assay: MIC determination
Format in all cases: cell-based

Experiment [1] has as its system S. aureus ATCC 29213. To be noted: Staphylococcus aureus.
Experiment [2] relates to P. aeruginosa MMX 3476 Δmex. To be noted: Pseudomonas aeruginosa.
For experiment [3], the system named is S. pyogenes MMX 946 Macrolide-Resistant. As to conditions: Streptococcus pyogenes.
The subject of experiment [4] is S. pneumoniae ATCC 49619. To be noted: Streptococcus pneumoniae, ATCC49619; S. pneumoniae ATCC 49619; read-out: MIC.
Experiment [5] has as its system S. aureus Micromyx USA 300. As to conditions: Staphylococcus aureus, USA300.
For experiment [6], the system named is E. faecalis MMX 847 Macrolide-Resistant. As to conditions: Enterococcus faecalis.
The test system of experiment [7] is B. fragilis ATCC 25285. As to conditions: Bacteroides fragilis, ATCC25285.
The test system of experiment [8] is C. difficile BAA 1805. As to conditions: Clostridioides difficile, BAA1805.
Experiment [9] deals with P. aeruginosa MMX Mex parent strain. To be noted: Pseudomonas aeruginosa.
In experiment [10] the test system is S. aureus MMX 3035 cErmA. To be noted: Staphylococcus aureus, MMX3035CERMA.
The subject of experiment [11] is E. coli ATCC 25922. As to conditions: Escherichia coli.
The test system of experiment [12] is E. faecalis ATCC 29212. To be noted: Enterococcus faecalis.
The test system of experiment [13] is S. pneumoniae MMX 3031 cMefA. As to conditions: Streptococcus pneumoniae, MMX3031CMEFA.
Experiment [14] has as its system S. aureus BAA 977 iErmA. As to conditions: Staphylococcus aureus, BAA977.
Experiment [15] has as its system S. pyogenes ATCC 19615. To be noted: Streptococcus pyogenes, ATCC19615; S. pyogenes ATCC 19615; read-out: MIC.
The test system of experiment [16] is S. pneumoniae MMX 3028 cErmB. To be noted: Streptococcus pneumoniae, MMX3028CERMB.
The subject of experiment [17] is E. coli MMX TolC parent strain. As to conditions: Escherichia coli.
Experiment [18] has as its system P. aeruginosa ATCC 27853. To be noted: Pseudomonas aeruginosa, ATCC27853.
Experiment [19] deals with H. influenzae ATCC 49247. As to conditions: Haemophilus influenzae, ATCC49247.
Experiment [20] has as its system E. coli MMX 0121 ΔTolC. To be noted: Escherichia coli.
The mark [21] stands for this setting: ATCC29213, S. aureus ATCC 29213, read-out: MIC.
Where [22] appears, read: S. aureus Micromyx USA 300, read-out: MIC.
Setting [23] is: B. fragilis ATCC 25285, read-out: MIC.
The mark [24] stands for this setting: C. difficile BAA 1805, read-out: MIC.
[25] abbreviates: H. influenzae ATCC 49247, read-out: MIC.

≈ marks a conversion by molar mass, not a printed value. Like-named read-outs stand apart in the source and are kept apart here.

`C=CC1=CCO[C@@H]2[C@H](CN[C@@H]2C(=O)N[C@H]([C@H](C)Cl)[C@H]2OC(SC)[C@H](O)[C@H](O)C2O)C1` (some centres unmarked) [FSA-507041]: the MIC in experiment [1] (setting [21]) is 0.5 µg/mL (≈ 1.08 µM); in [2] it was above 32 µg/mL; in experiment [3] it was above 32 µg/mL; in experiment [4] it was at most 0.03 µg/mL; in experiment [5] (setting [22]) it was 0.25 µg/mL (≈ 0.54 µM); in experiment [6], above 32 µg/mL. Moreover, the MIC in [7] (setting [23]) is 2 µg/mL (≈ 4.32 µM); in experiment [8] (setting [24]), 0.5 µg/mL (≈ 1.08 µM); in [9], above 32 µg/mL; in experiment [10], above 32 µg/mL; in [11] (ATCC25922), above 32 µg/mL; in experiment [12] (ATCC29212, read-out: MIC), 2 µg/mL (≈ 4.32 µM). For the same compound, the MIC was at most 0.03 µg/mL in experiment [13]; 0.5 µg/mL (≈ 1.08 µM) in experiment [14]; 0.06 µg/mL (≈ 0.13 µM) in [15]; 32 µg/mL (≈ 69.1 µM) in experiment [16] (S. pneumoniae MMX 3028 cErmB, read-out: MIC); above 32 µg/mL in experiment [17]; above 32 µg/mL in experiment [18]. Further, the MIC in experiment [19] and in [20] was 16 µg/mL (≈ 34.6 µM) each time.

As to `CSC1O[C@H]([C@H](NC(=O)[C@H]2NC[C@@H]3CC(c4ccccc4)=CCO[C@H]32)[C@H](C)Cl)C(O)[C@@H](O)[C@H]1O` (some centres unmarked) [FSA-507056], the MIC in experiment [1] (setting [21]) is 1 µg/mL (≈ 1.95 µM); in [2], above 32 µg/mL; in experiment [3] it was above 32 µg/mL; in [4], 0.25 µg/mL (≈ 0.487 µM); in experiment [5] (setting [22]), 0.5 µg/mL (≈ 0.975 µM); in experiment [6] it was above 32 µg/mL. Also, the MIC in experiment [7] is above 32 µg/mL; in [8] (setting [24]), 16 µg/mL (≈ 31.2 µM); in [9], above 32 µg/mL; in experiment [10] it was above 32 µg/mL; in experiment [11] (ATCC25922), above 32 µg/mL; in experiment [12] (ATCC29212, read-out: MIC), 2 µg/mL (≈ 3.9 µM). The MIC was 0.12 µg/mL (≈ 0.234 µM) in experiment [13]; 1 µg/mL (≈ 1.95 µM) in [14]; 0.25 µg/mL (≈ 0.487 µM) in experiment [15]; above 32 µg/mL in [16]; above 32 µg/mL in [17]; above 32 µg/mL in experiment [18]. The MIC in [19] and in experiment [20] was above 32 µg/mL throughout.

With `CSC1O[C@H]([C@H](NC(=O)[C@H]2NC[C@@H]3C=C(c4ccc(F)cc4)CCO[C@@H]23)[C@H](C)Cl)C(O)[C@@H](O)[C@H]1O` (some centres unmarked) [FSA-507052], the MIC in experiment [1] (setting [21]) is 2 µg/mL (≈ 3.77 µM); in experiment [2] it was above 32 µg/mL; in experiment [3], above 32 µg/mL; in experiment [4], 0.25 µg/mL (≈ 0.471 µM); in experiment [5] (setting [22]), 0.5 µg/mL (≈ 0.942 µM); in experiment [6] it was above 32 µg/mL. Besides, the MIC is above 32 µg/mL in [7]; 16 µg/mL (≈ 30.1 µM) in [8] (setting [24]); above 32 µg/mL in experiment [9]; above 32 µg/mL in [10]; above 32 µg/mL in experiment [11] (ATCC25922); 1 µg/mL (≈ 1.88 µM) in experiment [12] (ATCC29212, read-out: MIC). Moreover, the MIC in experiment [13] is 0.12 µg/mL (≈ 0.226 µM); in experiment [14] it was 2 µg/mL (≈ 3.77 µM); in experiment [15], 0.25 µg/mL (≈ 0.471 µM); in experiment [16], above 32 µg/mL; in [17] it was above 32 µg/mL; in experiment [18], above 32 µg/mL. Besides, the MIC in experiment [19] and in experiment [20] was above 32 µg/mL throughout.

`Cc1ccc(S(=O)(=O)OCC2O[C@H]([C@H](NC(=O)[C@H]3NC[C@@H]4CC=CCO[C@H]43)[C@@H](C)O)C(O)[C@@H](O)[C@H]2O)cc1` (some centres unmarked) [FSA-211030]: the MIC in [1] (ATCC29213) is above 64 µg/mL; in experiment [2] it was above 64 µg/mL; in experiment [3], above 64 µg/mL; in experiment [4] it was 32 µg/mL (≈ 57.5 µM); in experiment [5], above 64 µg/mL; in experiment [6], above 64 µg/mL. In addition, the MIC in [7], in experiment [8], in experiment [9], in experiment [10], in experiment [11] (ATCC25922) and in experiment [12] (ATCC29212) was above 64 µg/mL each time. In addition, the MIC is 32 µg/mL (≈ 57.5 µM) in experiment [13]; above 64 µg/mL in experiment [14]; 1 µg/mL (≈ 1.8 µM) in experiment [15]; above 64 µg/mL in [16]; above 64 µg/mL in experiment [17]; above 64 µg/mL in [18]. The MIC in [19] and in [20] was above 64 µg/mL in each case.

As for `CSC1O[C@H]([C@H](NC(=O)[C@H]2NC[C@@H]3C=C(c4ccccc4)CCO[C@@H]23)[C@H](C)Cl)C(O)[C@@H](O)[C@H]1O` (some centres unmarked) [FSA-507031], the MIC in experiment [1] (ATCC29213) is above 32 µg/mL; in [2], above 32 µg/mL; in experiment [3], above 32 µg/mL; in experiment [4], 32 µg/mL (≈ 62.4 µM); in experiment [5], above 32 µg/mL; in experiment [6], above 32 µg/mL. Further, the MIC in experiment [7] (setting [23]) is 32 µg/mL (≈ 62.4 µM); in experiment [8], above 32 µg/mL; in [9], above 32 µg/mL; in [10], above 32 µg/mL; in experiment [11] (ATCC25922), above 32 µg/mL; in experiment [12] (ATCC29212) it was above 32 µg/mL. For the same compound, the MIC in experiment [13] is 16 µg/mL (≈ 31.2 µM); in [14] it was above 32 µg/mL; in [15] it was 32 µg/mL (≈ 62.4 µM); in [16], above 32 µg/mL; in experiment [17], above 32 µg/mL; in experiment [18], above 32 µg/mL. Further, the MIC in experiment [19] (setting [25]) is 8 µg/mL (≈ 15.6 µM); in [20] it was above 32 µg/mL.

Turning to `C[C@@H](O)[C@@H](NC(=O)[C@H]1NC[C@@H]2CC=CCO[C@H]21)[C@H]1OC(CN=[N+]=[N-])[C@H](O)[C@H](O)C1O` (some centres unmarked) [FSA-211064], the MIC in experiment [1] (ATCC29213) was above 64 µg/mL; in [2] it was above 64 µg/mL; in experiment [3] it was above 64 µg/mL; in experiment [4] it was 16 µg/mL (≈ 37.4 µM); in experiment [5], above 64 µg/mL; in experiment [6], above 64 µg/mL. Also, the MIC in [7] was above 64 µg/mL; in experiment [8] (setting [24]), 64 µg/mL (≈ 150 µM); in experiment [9], above 64 µg/mL; in experiment [10], above 64 µg/mL; in experiment [11] (ATCC25922) it was above 64 µg/mL; in experiment [12] (ATCC29212) it was above 64 µg/mL. Further, the MIC was 16 µg/mL (≈ 37.4 µM) in experiment [13]; above 64 µg/mL in experiment [14]; 4 µg/mL (≈ 9.36 µM) in experiment [15]; above 64 µg/mL in experiment [16]; above 64 µg/mL in experiment [17]; above 64 µg/mL in [18]. Further, the MIC in [19] and in [20] was above 64 µg/mL each time.

Take `CSC1O[C@H]([C@H](NC(=O)[C@H]2NC[C@@H]3CC(c4ccc(C(F)(F)F)cc4)=CCO[C@H]32)[C@H](C)Cl)C(O)[C@@H](O)[C@H]1O` (some centres unmarked) [FSA-507060]: the MIC was 2 µg/mL (≈ 3.44 µM) in experiment [1] (setting [21]); above 64 µg/mL in experiment [2]; 32 µg/mL (≈ 55.1 µM) in experiment [3] (S. pyogenes MMX 946 Macrolide-Resistant (MacRes), read-out: MIC); 0.5 µg/mL (≈ 0.861 µM) in experiment [4]; 0.5 µg/mL (≈ 0.861 µM) in experiment [5] (setting [22]); 32 µg/mL (≈ 55.1 µM) in [6] (E. faecalis MMX 847 Macrolide-Resistant (MacRes), read-out: MIC). The MIC is 32 µg/mL (≈ 55.1 µM) in experiment [7] (setting [23]); 32 µg/mL (≈ 55.1 µM) in experiment [8] (setting [24]); above 64 µg/mL in experiment [9]; 32 µg/mL (≈ 55.1 µM) in experiment [10] (S. aureus MMX 3035 cErmA, read-out: MIC); 64 µg/mL (≈ 110 µM) in experiment [11] (ATCC25922, E. coli ATCC 25922, read-out: MIC); 8 µg/mL (≈ 13.8 µM) in [12] (ATCC29212, read-out: MIC). The MIC in experiment [13] was 0.25 µg/mL (≈ 0.43 µM); in experiment [14], 1 µg/mL (≈ 1.72 µM); in experiment [15], 0.25 µg/mL (≈ 0.43 µM); in experiment [16] it was 16 µg/mL (≈ 27.5 µM); in experiment [17] (E. coli MMX TolC parent strain, read-out: MIC) it was 64 µg/mL (≈ 110 µM); in [18], above 64 µg/mL. The MIC was determined as 32 µg/mL (≈ 55.1 µM) in [19] (setting [25]) and 16 µg/mL (≈ 27.5 µM) in experiment [20].
